# Earlier results as cited in US7144857B2 (priority 2004, dated 2006).
# Test system: sternal wound infections
# Conditions: 416 patients, randomized to topical vancomycin; p=0.02
structure (smiles),measurement,value
"CN[C@H](CC(C)C)C(=O)N[C@H]1C(=O)N[C@@H](CC(N)=O)C(=O)N[C@H]2C(=O)N[C@H]3C(=O)N[C@H](C(=O)N[C@H](C(=O)O)c4cc(O)cc(O)c4-c4cc3ccc4O)[C@H](O)c3ccc(c(Cl)c3)Oc3cc2cc(c3O[C@@H]2O[C@H](CO)[C@@H](O)[C@H](O)[C@H]2O[C@H]2C[C@](C)(N)[C@H](O)[C@H](C)O2)Oc2ccc(cc2Cl)[C@H]1O [topical vancomycin, vancomycin]",decrease of the rate of sternal infection,7 factor
